Legend:
[1] = target: T1, DNA-PK (p-Ser2056) (Homo sapiens, UniProt P78527); experiment: IR-induced DNA-PK phosphorylation in tumor tissue, ELISA, HCT116 xenograft; format: in vivo; conditions: IR 50 Gy
T1 construct: from tissue; host or cells: human tumor xenografts (FaDu, HCT116, WM164) grown in mice
Text: (§1) Following the induction of DSB by radiation therapy or other DNA damaging agents, the catalytic subunit of DNA-PK (DNA-PKc) is autophosphorylated at several serine and threonine residues. Ser2056 is one of the most prominent and best studied autophosphorylation sites. Because Ser2056 phosphorylation (p-Ser2056) correlated well with DNA-PK activation state it was chosen as the pharmacodynamics (PD) biomarker. Two different assay formats were established to measure p-Ser2056 in tumor tissue: ELISA and MSD format. In order to detect sequence reliable signal, IR was used at 50 Gy for the ELISA assay and 10 Gy for the more sensitive MSD assay.

[2] = target: T1, DNA-PK (p-Ser2056); experiment: IR-induced DNA-PK phosphorylation in tumor tissue, ELISA, FaDu xenograft; format: in vivo; conditions: IR 50 Gy
Text: as §1

[3] = test system: COLO678; experiment: Single agent activity, panel of 81 cancer cell lines plus PBMC; format: cell-based; conditions: Homo sapiens, COLO-678
[4] = test system: MCF7; experiment: SRB growth inhibition, 93 cell lines panel; format: cell-based; conditions: Homo sapiens; MCF7, breast; read-out: GI50 of etoposide (±Compound 1)
Experimental: (§2) 90 μl of cells, after a 48-hour pre-growth period, were treated by mixing with 10 μl of the compound-containing media (resulting in a final DMSO concentration of 0.1%).
(§3) This is the drug concentration causing a 50% reduction compared to the net protein increase in control cells during the drug incubation period. In other words, G150 is IC50 corrected for time zero. […] TGI was calculated from Ti=Tz. […] It was calculated as 100×[(Ti−Tz)/Tz]=−50.

[5] = test system: A549; experiment: SRB growth inhibition, 93 cell lines panel; format: cell-based; conditions: Homo sapiens; A549, lung; read-out: GI50 of etoposide (±Compound 1)
Experimental: as §2, §3

[6] = test system: CAKI1; experiment: SRB growth inhibition, 93 cell lines panel; format: cell-based; conditions: Homo sapiens, CAKI-1; CAKI1, kidney; read-out: GI50 of etoposide (±Compound 1)
Experimental: as §2, §3

[7] = test system: 1587MG; experiment: SRB growth inhibition, 93 cell lines panel; conditions: read-out: GI50 of etoposide (±Compound 1)
Experimental: (§4) Cell growth and treatment were performed in 96-well microtitre plates CELLSTAR® (Greiner Bio-One, Germany). Cells harvested from exponential phase cultures by trypsinization or by splitting (in the case of cells growing in suspension) were plated in 90 μl of media at optimal seeding densities. The optimal seeding density for each cell line was determined to ensure exponential growth for the duration of the experiment. All cells growing without anticancer agents were sub-confluent by the end of the treatment, as determined by visual inspection. […] The cells were allowed to grow at 37° C. for 72 (or 120) hours. […] Cells were fixed to the surface by addition of 10% TCA (for adherent growing cells) or 50% TCA (for semi-adherent growing cell or cells growing in suspension). After an hour of incubation at 4° C. plates were washed twice with 200 μl of deionized water and dried. Cells were then stained with 100 μl of 0.04% w/v SRB. The plates were incubated at room temperature for at least 30 min and washed six times with 1% acetic acid to remove unbound stain. […] Using these measurements, cellular responses can be calculated for incomplete inhibition of cell growth (GI), complete inhibition of cell growth (TGI) and net loss of cells (LC) due to compound activity. […] TGI was calculated from Ti=Tz.

[8] = test system: SNB75; experiment: SRB growth inhibition, 93 cell lines panel; conditions: Homo sapiens, SNB-75, read-out: GI50 of etoposide (±Compound 1)
Experimental: as §4

[9] = test system: SKNAS; experiment: SRB growth inhibition, 93 cell lines panel; conditions: Homo sapiens, SK-N-AS, read-out: GI50 of etoposide (±Compound 1)
Experimental: as §4

Row | Structure (SMILES) | inhibition of IR-induced DNA-PK phosphorylation (Ser2056) [1] | inhibition of IR-induced DNA-PK phosphorylation (Ser2056) [2] | GI50 [3] [nM] | GI50 [4] [nM] | GI50 [5] [nM] | GI50 [6] [nM] | GI50 [7] [nM] | GI50 [8] [nM] | GI50 [9] [nM]
1 | COc1ccc([C@@H](O)c2cc(-c3ncnc4cc(N5CCOCC5)ccc34)c(F)cc2Cl)nn1 [Compound 1, (S)-[2-chloro-4-fluoro-5-(7-morpholin-4-yl-quinazolin-4-yl)-phenyl]-(6-methoxy-pyridazin-3-yl)-methanol] | Dose-dependent inhibition | Dose-dependent inhibition |  |  |  |  |  |  | 
2 | COc1cc([C@@H]2c3cc4c(cc3[C@@H](O[C@@H]3O[C@@H]5CO[C@@H](C)O[C@H]5[C@H](O)[C@H]3O)[C@H]3COC(=O)[C@H]23)OCO4)cc(OC)c1O [Etoposide] |  |  | > 10000 | 1290 | 390 | 520 | 2400 | 3790 | 2150

From patent US11246929B2, “Combination of a protein kinase inhibitor and an additional chemotherapeutic agent” (Merck Patent GmbH, priority 2016, dated 2022)
